In PubChem BioAssay (NCI):
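Dose response: 5 concentrations. Exposure: 48 h. Format: 96-well plates. Endpoint: linear interpolation; highest concentration if not reached. The concentration for 50% growth inhibition is given as GI50. TGI is the concentration that stops growth completely.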

Legend:
Assay in all cases: inhibition of tumour cell growth, NCI panel, 48 h
NCI/ADR-RES ovarian = system: NCI/ADR-RES ovarian
SK-MEL-28 melanoma = system: SK-MEL-28 melanoma
HT29 colon = system: HT29 colon
ACHN renal = system: ACHN renal
CAKI-1 renal = system: CAKI-1 renal
HCT-116 colon = system: HCT-116 colon
HOP-62 NSCLC = system: HOP-62 NSCLC
RXF 393 renal = system: RXF 393 renal
KM12 colon = system: KM12 colon
SF-268 CNS = system: SF-268 CNS

SMILES | TGI (NCI/ADR-RES ovarian) [µM] | TGI (SK-MEL-28 melanoma) [µM] | TGI (HT29 colon) [µM] | TGI (ACHN renal) [µM] | TGI (CAKI-1 renal) [µM] | TGI (HCT-116 colon) [µM] | TGI (HOP-62 NSCLC) [µM] | TGI (RXF 393 renal) [µM] | TGI (KM12 colon) [µM] | TGI (SF-268 CNS) [µM] | GI50 (NCI/ADR-RES ovarian) [µM] | GI50 (SK-MEL-28 melanoma) [µM] | GI50 (HT29 colon) [µM] | GI50 (ACHN renal) [µM] | GI50 (CAKI-1 renal) [µM] | GI50 (HCT-116 colon) [µM] | GI50 (HOP-62 NSCLC) [µM] | GI50 (RXF 393 renal) [µM] | GI50 (KM12 colon) [µM] | GI50 (SF-268 CNS) [µM]
CC1NCCC(CC(=O)O)C1CC(=O)O (stereo unspecified) | > 100 | > 100 | > 100 | > 100 | > 100 | > 100 | > 100 | > 100 | > 100 | > 100 | – | – | – | – | – | – | – | – | – | –
OCC1OC(N2CCN(C3OC(CO)C(O)C(O)C3O)CC2)C(O)C(O)C1O (stereo unspecified) | > 100 | > 100 | > 100 | > 100 | > 100 | > 100 | > 100 | > 100 | > 100 | > 100 | – | – | – | – | – | – | – | – | – | –
CC(=O)Nc1ccc2c(c1)[nH]c(=O)c1cc(NC(C)=O)ccc12 | > 100 | > 100 | > 100 | > 100 | > 100 | > 100 | > 100 | > 100 | > 100 | > 100 | > 100 | > 100 | > 100 | > 100 | > 100 | > 100 | > 100 | > 100 | > 100 | > 100
CCN1C(=O)N(CC)C2C1NN=c1s/c(=C\c3ccc(Br)cc3)c(=O)n12 (stereo unspecified) | > 100 | > 100 | > 100 | > 100 | > 100 | > 100 | > 100 | > 100 | > 100 | > 100 | 0.0626 | > 53.8 | 0.0757 | 0.249 | 0.065 | 0.107 | 0.305 | 0.147 | 0.0604 | 0.852
COc1ccc2c(c1)C(=O)CC(C(N)=O)C2 (stereo unspecified) | > 100 | > 100 | > 100 | > 100 | > 100 | > 100 | > 100 | > 100 | > 100 | > 100 | – | – | – | – | – | – | – | – | – | –
Nc1cc2c3ccccc3ccc2c2ccccc12 | > 100 | > 100 | > 100 | > 100 | > 100 | > 100 | > 100 | > 100 | > 100 | > 100 | > 93.7 | > 100 | > 100 | > 100 | > 100 | 13.4 | 30.6 | > 100 | > 100 | > 100
O=C(Nc1ccc(-c2cn3ccccc3n2)cc1)c1cc(Br)ccc1O | > 100 | > 100 | > 100 | > 100 | > 100 | > 100 | > 100 | > 100 | > 100 | > 100 | – | – | – | – | – | – | – | – | – | –
Cn1cc(-c2nc(-c3c[nH]c4ccccc34)cs2)c2cccnc21 | 3.37 | > 100 | 18.3 | > 100 | > 100 | > 47.2 | 59.9 | 15.9 | 22.8 | > 100 | 0.11 | 0.71 | 0.166 | 0.527 | 0.273 | 0.364 | 0.626 | 0.368 | 0.314 | 0.689
Cc1ccccc1N=C(c1ccccc1)C1C(=O)c2ccccc2C1=O | 47.3 | > 100 | > 100 | 62.4 | > 100 | 16.2 | 63.9 | > 100 | 30.8 | 40.2 | 8.73 | 24.9 | 13.7 | 19 | 21 | 2.34 | 18.2 | 7.37 | 10.7 | 13.3
O=C1NC(=O)/C(=C/c2ccc3nccc(-c4ccncc4)c3c2)S1 | > 10 | 2.29 | 6.29 | 8.39 | 2.04 | > 5.61 | 4.26 | 1.3 | > 10 | 5.15 | 0.885 | 0.237 | 0.423 | 0.469 | 0.289 | 0.466 | 0.359 | 0.251 | 0.817 | 0.346
COC1C[C@H](O[C@@H]2C[C@H](O[C@@H]3C[C@H](O[C@@H]4C(=O)c5c(cc6cc(O[C@H]7C[C@@H](O[C@H]8C[C@@H](O)[C@H](O)C(C)O8)[C@H](O)C(C)O7)c(C)c(O)c6c5O)C[C@H]4C(OC)C(=O)[C@@H](O)[C@@H](C)O)OC(C)[C@H]3O)OC(C)[C@@H]2O)OC(C)[C@@H]1O (stereo partly specified) | > 32.5 | – | > 32.5 | 31.1 | > 32.5 | > 32.5 | > 32.5 | 0.525 | – | > 32.5 | > 32.5 | – | 0.0974 | 0.252 | 8 | 0.0968 | 0.0752 | 0.094 | – | 0.0864
